Measurements from patent US4740233A, “Substituted 1,2,4-triazolo[1,5-a]-pyrimidine-2-sulfonamides and compositions and methods of controlling undesired vegetation and suppressing the nitrification of ammonium nitrogen in soil” (The Dow Chemical Company, priority 1986, dated 1988).

Key:
Experiment in all cases: Preemergent control of plant species
[1] = test system: rice; type: in vivo, Oryza sativa; settings: Oryza sativa, pre-emergence, 336 h; 0.25 lb/acre; read-out: percent preemergent control
Outline: (§1)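 Seeds sown in agricultural soil in greenhouse beds, then aqueous-emulsion compositions applied uniformly to the bed surface at listed rates. Beds kept two weeks under greenhouse growth conditions with watering. Control expressed as growth reduction versus water-treated beds of the same species.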

[2] = test system: velvetleaf; type: in vivo, Abutilon theophrasti; settings: Abutilon theophrasti, pre-emergence, 336 h; 0.25 lb/acre; read-out: percent preemergent control
Outline: as §1

[3] = test system: corn; type: in vivo, Zea mays; settings: Zea mays, pre-emergence, 336 h; 0.25 lb/acre; read-out: percent preemergent control
Outline: as §1

[4] = test system: soybean; type: in vivo, Glycine max.; settings: Glycine max, pre-emergence, 336 h; 0.25 lb/acre; read-out: percent preemergent control
Outline: as §1

[5] = test system: wild oats; type: in vivo; settings: Avena fatua, pre-emergence, 336 h; 0.25 lb/acre; read-out: percent preemergent control
Description: The seeds of various species of plants were planted in beds of good agricultural soil in a greenhouse. A number of compositions of the present invention, generally in the nature of an aqueous emulsion, were applied at rates listed in the table so as to deposit a predetermined amount of active ingredients uniformly throughout the surface of the bed. Another seed bed was treated only with water to serve as a control. After treatment the seed beds were maintained for two weeks under greenhouse conditions conducive for good plant growth and watered as necessary. Control refers to the reduction in growth compared to the observed results of the same untreated species.

[6] = test system: cotton; type: in vivo, Gossypium spp.; settings: Gossypium hirsutum, pre-emergence, 336 h; 0.25 lb/acre; read-out: percent preemergent control
Outline: as §1

[7] = test system: barnyardgrass; type: in vivo, Echinochloa crusgalli; settings: Echinochloa crus-galli, pre-emergence, 336 h; 0.25 lb/acre; read-out: percent preemergent control
Outline: as §1

[8] = test system: rape; type: in vivo, Brassica napus; settings: Brassica napus, pre-emergence, 336 h; 0.25 lb/acre; read-out: percent preemergent control
Outline: as §1

[9] = test system: wheat; type: in vivo, Triticum aestivum; settings: Triticum aestivum, pre-emergence, 336 h; 0.25 lb/acre; read-out: percent preemergent control
Outline: as §1

[10] = test system: jimsonweed; type: in vivo, Datura stramonium; settings: Datura stramonium, pre-emergence, 336 h; 0.25 lb/acre; read-out: percent preemergent control
Outline: as §1

[11] = test system: sugar beet; type: in vivo, Beta saccharifera; settings: Beta vulgaris, pre-emergence, 336 h; 0.25 lb/acre; read-out: percent preemergent control
Outline: as §1

[12] = test system: yellow foxtail; type: in vivo, Setaria lutescens; settings: Setaria, pre-emergence, 336 h; 0.25 lb/acre; read-out: percent preemergent control
Outline: as §1

[13] = test system: johnson grass; type: in vivo, Sorghum halepense; settings: Sorghum halepense, pre-emergence, 336 h; 0.25 lb/acre; read-out: percent preemergent control
Outline: as §1

[14] = test system: annual morning glory; type: in vivo, Ipomoea spp.; settings: Ipomoea, pre-emergence, 336 h; 0.25 lb/acre; read-out: percent preemergent control
Outline: as §1

[15] = test system: yellow nutsedge; type: in vivo, Cyperus esculentus; settings: Cyperus, pre-emergence, 336 h; 0.25 lb/acre; read-out: percent preemergent control
Outline: as §1

[16] = test system: sorghum; type: in vivo, Sorghum vulgare; settings: Sorghum, pre-emergence, 336 h; 0.25 lb/acre; read-out: percent preemergent control
Outline: as §1

Structure (SMILES)	plant injury at 280.212 g/ha [1] [%]	pest or weed control at 280.212 g/ha [2] [%]	plant injury at 280.212 g/ha [3] [%]	plant injury at 280.212 g/ha [4] [%]	pest or weed control at 280.212 g/ha [5] [%]	plant injury at 280.212 g/ha [6] [%]	pest or weed control at 280.212 g/ha [7] [%]	plant injury at 280.212 g/ha [8] [%]	plant injury at 280.212 g/ha [9] [%]	pest or weed control at 280.212 g/ha [10] [%]	plant injury at 280.212 g/ha [11] [%]	pest or weed control at 280.212 g/ha [12] [%]	pest or weed control at 280.212 g/ha [13] [%]	pest or weed control at 280.212 g/ha [14] [%]	pest or weed control at 280.212 g/ha [15] [%]	plant injury at 280.212 g/ha [16] [%]
Cc1ccnc2nc(S(=O)(=O)Nc3c(F)cccc3Cl)nn12 [Compound 181]	30	98	0	80	40	98	20	100	0	98	98	80	60	80	50	95
Cc1ccn2nc(S(=O)(=O)N(C(=O)C3CCCCC3)c3c(F)cccc3F)nc2n1 [Compound 291]	100	100	55	20	70	100	100	100	100	100	100	100	100	90	100	100
Cc1cccc([N+](=O)[O-])c1NS(=O)(=O)c1nc2nccc(C)n2n1 [Compound 184]	0	100	0	50	0	100	0	98	0	98	100	80	30	80	80	95
CC=CC(=O)N(c1c(F)cccc1F)S(=O)(=O)c1nc2nc(C)ccn2n1 [Compound 288]	100	100	80	40	90	100	100	100	60	100	100	100	100	100	100	100
COC(=O)c1ccc(C)c(NS(=O)(=O)c2nc3nc(C)cc(C)n3n2)c1Br [Compound 86, methyl 3-amino-2-bromo-4-methyl-N-(5,7-dimethyl-1,2,4-triazolo[1,5-a]pyrimidine-2-sulfonyl)benzoate]	0	0	0	20	0	0	0	100	0	100	100	0	0	0	0	0
